Key:
[1] = tested on: A2780; assay: In vitro cytotoxicity of compound was determined against A2780 cell lines (cisplatin resistant) at 37 degree C for 96 hr; type: functional, Homo sapiens
[2] = tested on: CH1; assay: In vitro cytotoxicity of compound was determined against CH1 (cisplatin resistant) cell lines at 37 degree C for 96 hr; type: functional, Homo sapiens
[3] = tested on: CH1; assay: In vitro cytotoxicity of compound was determined against CH1 cell lines at 37 degree C for 96 hr; type: functional, Homo sapiens
[4] = Resistance factor of compound was determined from cisplatin resistant A2780 cell lines to that of A2780 cell lines; type: functional
[5] = tested on: Nucleic Acid; assay: Change in thermal denaturation temperature determined from calf thymus DNA after incubation at 37 degree celsius for 4 hours; type: functional; conditions: Bos taurus
[6] = tested on: A2780; assay: In vitro cytotoxicity of compound was determined against A2780 cell lines at 37 degree C for 96 hr; type: functional, Homo sapiens
[7] = tested on: Nucleic Acid; assay: Change in thermal denaturation temperature determined from calf thymus DNA after incubation at 37 degree celsius for 18 hours; type: functional; conditions: Bos taurus
[8] = tested on: SK-OV-3; assay: In vitro cytotoxicity of compound was determined against SKOV-3 cell lines at 37 degree C for 96 hr; type: functional, Homo sapiens
[9] = Resistance factor of compound was determined from cisplatin resistant CH1 cell lines to that of CH1 cell lines; type: functional
[10] = tested on: Nucleic Acid; assay: Change in thermal denaturation temperature determined from calf thymus DNA after incubation at 37 degree celsius for 0 hours; type: functional; conditions: Bos taurus

| Structure (SMILES) | Cytotoxicity [1] [µM] | Cytotoxicity [2] [µM] | Cytotoxicity [3] [µM] | Resistance factor [4] | ΔTm [5] [°C] | Cytotoxicity [6] [µM] | ΔTm [7] [°C] | Cytotoxicity [8] [µM] | Resistance factor [9] | ΔTm [10] [°C] |
| --- | --- | --- | --- | --- | --- | --- | --- | --- | --- | --- |
| C/C=C1/C[C@H]2C=Nc3cc(OCc4ccccc4)c(OC)cc3C(=O)N2C1 | 0.066 | 0.031 | 0.031 | 1.9 | 1.65 | 0.034 | 2.34 | 0.081 | 1 | 0.92 |
| C=C1C[C@H]2C=Nc3cc(OCc4ccccc4)c(OC)cc3C(=O)N2C1 | 0.2 | 0.082 | 0.017 | 6.9 | 1.22 | 0.029 | 1.33 | 0.35 | 4.8 | 1.01 |
| COc1cc2c(cc1OCc1ccccc1)N=C[C@@H]1CCCN1C2=O | 0.48 | 0.145 | 0.145 | 2.8 | 0.4 | 0.17 | 0.4 | 0.46 | 1 | 0.2 |
| C/C=C1/C[C@H]2C=Nc3cc(OC)c(OC)cc3C(=O)N2C1 | 0.14 | 0.056 | 0.035 | 1.9 | 1.47 | 0.071 | 1.86 | 0.135 | 1.6 | 0.84 |
| COc1cc2c(cc1OC)C(=O)N1CCC[C@H]1C=N2 | 0.155 | 0.11 | 0.082 | 2.4 | 0.43 | 0.064 | 0.57 | 1.7 | 1.3 | 0.24 |
| C=C1C[C@H]2C=Nc3cc(OC)c(OC)cc3C(=O)N2C1 | 0.36 | 0.084 | 0.066 | 2.4 | 1.95 | 0.15 | 2.38 | 0.39 | 1.3 | 1.46 |
| C/C=C1/C[C@H]2C=Nc3cc(O)c(OC)cc3C(=O)N2C1 |  |  | 0.00013 |  |  |  |  |  |  |  |

Source: ChEMBL document CHEMBL1133276, “Effect of C2-exo unsaturation on the cytotoxicity and DNA-binding reactivity of pyrrolo[2,1-c][1,4]benzodiazepines” (2000)
